In publication PMC8838521, “Antimicrobial, Cytotoxic and Mutagenic Activity of Gemini QAS Derivatives of 1,4:3,6-Dianhydro-L-iditol” (Molecules, 2022):
Several values for one entry are separate records, joined by “and”; a condition that tells them apart may be missing. Equal values may be shown once. Entries after “also recorded” stand apart in the source; their conditions may differ. Read-outs that look alike come from different tables or passages of the source.

Assays:
[1] = Solubility observed during assays; format: physicochemical; details: for Solubility in water and DMSO: for Ames test; for Solubility in water: observed during antimicrobial assays, DMSO used for solubilisation
[2] = tested on: S. aureus clinical isolates; assay: Antistaphylococcal activity, microdilution MIC, clinical isolates; format: cell-based; details: Staphylococcus aureus
Description: (§1) The antimicrobial potential of the tested agents was evaluated against two reference strains of bacteria: Staphylococcus aureus ATCC 25923 and Escherichia coli K12, two reference strains of pathogenic yeasts, Candida albicans ATCC10231 and Candida glabrata DSMZ11226, as well as 20 strains of clinical isolates of S. aureus collected from patients with skin and soft tissue infections (n = 8) and strains derived from subclinical bovine mastitis milk samples (n = 12). Four of these strains, two isolated from human infections and two isolated from bovine mastitis, were classified as MRSA (Methicillin-resistant Staphylococcus aureus). All of them were mecA positive and their methicillin resistance was confirmed with the disc diffusion assay. The remaining 16 strains were MSSA (Methicillin-sensitive Staphylococcus aureus). The assays were performed using a serial, two-fold dilution method in 96-well microtiter plates under conditions recommended by the Clinical and Laboratory Standards Institute (CLSI, Pittsburgh, PA, USA). The aim of this procedure was the determination of the MIC parameter (Minimum Inhibitory Concentration)—the minimum concentration of a tested agent capable to inhibit the growth of a specified strain of microorganism. The agents were solubilized in deionized, sterile water to a final concentration of […]. Subsequently, solutions were mixed (1:1 (v/v)) with 2 × concentrated liquid medium, Mueller-Hinton Broth 2—cation adjusted (MHB2) for evaluation of antibacterial activity and RPMI in the case of evaluation of the antifungal activity. […] Subsequently, the solutions were mixed with MHB2 or RPMI medium to get the final concentration of 8.192 mg/mL (8192 µg/mL). In the next step, the serial, two-fold dilutions of the tested agents (over the range of concentrations from 8192 to 8 µg/mL for reference strains of bacteria and yeasts and from 512 to 1.0 µg/mL for clinical isolates of S. aureus) were prepared in 96-well microtitration plates in the final volume of 100 μL of the appropriate medium.
(§2) The pure bacterial cultures of (both the reference and clinical strains) were grown on the Mueller-Hinton Agar (MHA) for 18–24 h at 37 °C. A small amount of the biomass of the culture of each strain of microorganisms was suspended in the sterile PBS (phosphate buffered saline, pH 7.4 at 25 °C, purchased from Sigma) solution to get an optical density OD600 = 0.13 (equal to the cells concentration approximately 1 × 10^8 CFU/mL). The obtained suspensions of the cells were next diluted 1:100 (v/v) in the MHB2 medium. One hundred µL of the cells’ suspension was finally loaded into the wells of plates prepared in advance, which contained 100 µL of two-fold dilutions of the tested agents (the final concentration of the bacterial cells in all wells was approximately 5 × 10^5 CFU/mL).
(§3) The pure cultures of yeast strains were grown on the Sabouraud Dextrose Agar (SDA) for 18–24 h at 37 °C. Suspensions of the microorganisms were prepared by taking one loop of pure culture into sterile water and adjusting optical density to 0.1 at 660 nm and further 50-fold dilution in RPMI 1640 medium resulting in cells concentration of approximate 2 × 10^4 CFU/mL. One hundred μL of that suspension was inoculated to the wells of the microtitration plate containing appropriate dilutions of the agents. The positive growth control of each strain (both bacteria and yeasts) was performed in the wells without the tested substances. The negative control containing only the media was included in each assay. Microtiter plates were incubated at 37 °C for 24 h. Following the incubation period, determination of the MIC values of the tested agents was carried out by measuring the absorbance at 531 nm using a Victor^3 microplate reader (Perkin Elmer, Inc., Waltham, MA, USA). The lowest concentration of the agent causing inhibition of growth equal to or higher than 90% (MIC90) of growth control was taken as the MIC value. Each test was repeated three times. […]

[3] = tested on: Escherichia coli K12; assay: Antimicrobial activity, microdilution MIC, E. coli; format: cell-based; details: Escherichia coli, K12, 24 h, MIC90, 24 h, MHB2; read-out: MIC E. coli K12
Description: as §1, §2, §3

[4] = tested on: Candida albicans ATCC 10231; assay: Antimicrobial activity, microdilution MIC, C. albicans; format: cell-based; details: Candida albicans, ATCC10231, 24 h, MIC90, 24 h, RPMI; read-out: MIC C. albicans ATCC 10231
Description: as §1
The pure cultures of yeast strains were grown on the Sabouraud Dextrose Agar (SDA) for 18–24 h at 37 °C. Suspensions of the microorganisms were prepared by taking one loop of pure culture into sterile water and adjusting optical density to 0.1 at 660 nm and further 50-fold dilution in RPMI 1640 medium resulting in cells concentration of approximate 2 × 10^4 CFU/mL. One hundred μL of that suspension was inoculated to the wells of the microtitration plate containing appropriate dilutions of the agents. The positive growth control of each strain (both bacteria and yeasts) was performed in the wells without the tested substances. The negative control containing only the media was included in each assay. Microtiter plates were incubated at 37 °C for 24 h. Following the incubation period, determination of the MIC values of the tested agents was carried out by measuring the absorbance at 531 nm using a Victor^3 microplate reader (Perkin Elmer, Inc., Waltham, MA, USA). The lowest concentration of the agent causing inhibition of growth equal to or higher than 90% (MIC90) of growth control was taken as the MIC value. Each test was repeated three times.

[5] = 20 clinical isolates, typical value, read-out: MIC against S. aureus clinical isolates, in general
[6] = isolate 1, human infection, MSSA, read-out: MIC S. aureus isolate 1
[7] = isolate 2, human infection, MSSA, read-out: MIC S. aureus isolate 2
[8] = isolate 3, human infection, MSSA, read-out: MIC S. aureus isolate 3
[9] = isolate 4, human infection, MSSA, read-out: MIC S. aureus isolate 4
[10] = isolate 5, human infection, MSSA, read-out: MIC S. aureus isolate 5
[11] = isolate 6, human infection, MSSA, read-out: MIC S. aureus isolate 6
[12] = isolate 7, human infection, MRSA, read-out: MIC S. aureus isolate 7
[13] = isolate 8, human infection, MRSA, read-out: MIC S. aureus isolate 8
[14] = isolate 9, bovine mastitis, MSSA, read-out: MIC S. aureus isolate 9
[15] = isolate 10, bovine mastitis, MSSA, read-out: MIC S. aureus isolate 10
[16] = isolate 11, bovine mastitis, MSSA, read-out: MIC S. aureus isolate 11
[17] = isolate 12, bovine mastitis, MSSA, read-out: MIC S. aureus isolate 12
[18] = isolate 13, bovine mastitis, MSSA, read-out: MIC S. aureus isolate 13
[19] = isolate 14, bovine mastitis, MSSA, read-out: MIC S. aureus isolate 14
[20] = isolate 15, bovine mastitis, MSSA, read-out: MIC S. aureus isolate 15
[21] = isolate 16, bovine mastitis, MSSA, read-out: MIC S. aureus isolate 16
[22] = isolate 17, bovine mastitis, MSSA, read-out: MIC S. aureus isolate 17
[23] = isolate 18, bovine mastitis, MSSA, read-out: MIC S. aureus isolate 18
[24] = isolate 19, bovine mastitis, MRSA, read-out: MIC S. aureus isolate 19
[25] = isolate 20, bovine mastitis, MRSA, read-out: MIC S. aureus isolate 20

With `CCCCCCCC[N+](C)(C)C1COC2C1OCC2[N+](C)(C)CCCCCCCC` (stereo not drawn) [QAS 9] the “Solubility in water and DMSO” value [1] was “insufficient solubility in both water and DMSO”, the Solubility in water [1] was “suppressed water solubility; also recorded: lower solubility in water” and the MIC [2, 5] was 64 µg/mL. The MIC [2, 6] was 64 µg/mL and 88 µM, the MIC [2, 7] was 64 µg/mL and 88 µM and the MIC [2, 8] was 64 µg/mL and 88 µM. The MIC [2, 9] was 128 µg/mL and 176 µM, the MIC [2, 10] was 64 µg/mL and 88 µM and the MIC [2, 11] was 64 µg/mL and 88 µM. The MIC [2, 12] was 64 µg/mL and 88 µM, the MIC [2, 13] was 64 µg/mL and 88 µM and the MIC [2, 14] was 64 µg/mL and 88 µM. For the same compound, the MIC [2, 15] was 64 µg/mL and 88 µM, the MIC [2, 16] was 64 µg/mL and 88 µM and the MIC [2, 17] was 64 µg/mL and 88 µM. The MIC [2, 18] was 64 µg/mL and 88 µM, the MIC [2, 19] was 64 µg/mL and 88 µM and the MIC [2, 20] was 64 µg/mL and 88 µM. For the same compound, the MIC [2, 21] was 64 µg/mL and 88 µM, the MIC [2, 22] was 64 µg/mL and 88 µM and the MIC [2, 23] was 64 µg/mL and 88 µM. For the same compound, the MIC [2, 24] was 64 µg/mL and 88 µM, the MIC [2, 25] was 64 µg/mL and 88 µM and the MIC [3] was 2050 µg/mL and 2820 µM. The MIC [4] was 1020 µg/mL and 1410 µM.
For `CCCCCCCCCC[N+](C)(C)C1COC2C1OCC2[N+](C)(C)CCCCCCCCCC` [QAS 10, N,N’-(1,4:3,6-Dianhydro-2,5-dideoxy-L-iditol-2,5-diyl)-bis(N,N-dimethyl-N-decylammonium) Ditrifluoromethanesulfonate], the “Solubility in water and DMSO” value [1] was “insufficient solubility in both water and DMSO”, the Solubility in water [1] was “suppressed water solubility; also recorded: lower solubility in water” and the MIC [2, 5] was 8 µg/mL. The MIC [2, 6] was 8 µg/mL and 10 µM, the MIC [2, 7] was 8 µg/mL and 10 µM and the MIC [2, 8] was 4 µg/mL and 5 µM. For the same compound, the MIC [2, 9] was 8 µg/mL and 10 µM, the MIC [2, 10] was 8 µg/mL and 10 µM and the MIC [2, 11] was 8 µg/mL and 10 µM. For the same compound, the MIC [2, 12] was 4 µg/mL and 5 µM, the MIC [2, 13] was 8 µg/mL and 10 µM and the MIC [2, 14] was 8 µg/mL and 10 µM. For the same compound, the MIC [2, 15] was 8 µg/mL and 10 µM, the MIC [2, 16] was 8 µg/mL and 10 µM and the MIC [2, 17] was 8 µg/mL and 10 µM. The MIC [2, 18] was 8 µg/mL and 10 µM, the MIC [2, 19] was 4 µg/mL and 5 µM and the MIC [2, 20] was 8 µg/mL and 10 µM. The MIC [2, 21] was 8 µg/mL and 10 µM, the MIC [2, 22] was 8 µg/mL and 10 µM and the MIC [2, 23] was 8 µg/mL and 10 µM. The MIC [2, 24] was 8 µg/mL and 10 µM, the MIC [2, 25] was 8 µg/mL and 10 µM and the MIC ([2]; more susceptible strains among 20 isolates, read-out: MIC of more susceptible S. aureus clinical strains) was 4 µg/mL. For the same compound, the MIC [3] was 32 µg/mL and 40 µM and the MIC [4] was 32 µg/mL and 40 µM.
